Assay results taken from patent US20230087844A1, “USE OF N2-QUINCLINE OR ISOQUINOLINE SUBSTITUTED PURINE DERIVATIVES IN CANCER TREATMENT” (SHANGHAI HUAYU BIOTECHNOLOGY CO., LTD., priority 2020, published 2023).
Marks after values point to notes of the source that are not given here.

How the values were obtained:
MV-4-11 cells [1] = assay: MV-4-11 AML xenograft in mice (Example 7); type: in vivo, BALB-cA nude mice; conditions: D0-20; for Complete remission: number of mice, N 6
Experimental: Mice body weights and tumor sizes were measured twice a week. The tumor volume, T/C and TGI (Tumor growth inhibition=(average tumor volume in vehicle group-average tumor volume in administration group)/average tumor volume in vehicle group ×100%) were calculated. Mice were sacrificed on Day 21.

[2] = test system: Colon26 murine colon cancer cells; assay: Colon26 colon cancer growth in mice; type: in vivo, F1 mice; conditions: for TGI / Tumor weight: Day 8
Experimental: F1 mice, 18-22 g, purchased from Shanghai Bi-Kai Laboratory Animal Co., Ltd, were subcutaneously inoculated with Colon26 murine colon cancer cells (from Cell Bank, Chinese Academy of Sciences) at the right axilla. […] Tumor growth inhibition (TGI) was calculated.

[3] = test system: S180 murine sarcoma cancer cells; assay: S180 sarcoma growth in mice; conditions: 30 mg/kg I.P., D1-7
Experimental: On Day 8, the mice were weighed and sacrificed, and the tumors were collected and weighed.
Tumor growth inhibition (TGI) was calculated by the following formula. Tumor growth inhibition=(average tumor weight in vehicle group-average tumor weight in administration group)/average tumor weight in vehicle group×100%

[4] = test system: SGC-7901 human gastric cancer cells; assay: SGC-7901 gastric cancer xenograft in mice; conditions: 5 mg/kg I.P., D0, 6
Experimental: Mice body weights and tumor sizes were measured 2 to 3 times a week. The tumor volume (V) was calculated as (length× width^2)/2. T/C (%) was calculated as (T-T0)/(C-C0)×100, wherein T and C represented the tumor volumes in the administration group and the vehicle group respectively at the end of the experiment, while T0 and C0 represented the tumor volumes in the administration group and the vehicle group respectively at the beginning of the experiment. And RTV was calculated as (Tumor volume at Day N/Tumor volume at Day 0).
BALB/cA-nude mice, 5-6 weeks old, purchased from Shanghai SLAC Laboratory Animal Co., Ltd, were subcutaneously inoculated with SGC-7901 human gastric cancer cells (from Cell Bank, Chinese Academy of Sciences).
(§7) Mice body weights and tumor sizes were measured 2 to 3 times a week. The tumor volume, T/C and RTV were calculated as described above. Mice were sacrificed on Day 18.

[5] = test system: A549 human non-small cell lung cancer cells; assay: A549 non-small cell lung cancer xenograft in mice; conditions: 5 mg/kg I.P., D0, 3
Experimental: Mice body weights and tumor sizes were measured 2 to 3 times a week. The tumor volume (V) was calculated as (length× width^2)/2. T/C (%) was calculated as (T-T0)/(C-C0)×100, wherein T and C represented the tumor volumes in the administration group and the vehicle group respectively at the end of the experiment, while T0 and C0 represented the tumor volumes in the administration group and the vehicle group respectively at the beginning of the experiment. And RTV was calculated as (Tumor volume at Day N/Tumor volume at Day 0). Mice were sacrificed on Day-14.
BALB/cA-nude mice, 5-6 weeks old, purchased from Shanghai SLAC Laboratory Animal Co., Ltd, were subcutaneously inoculated with A549 human non-small cell lung cancer cells (from ATCC).
as §7

MV-4-11 cells [6] = assay: MV-4-11 AML xenograft in mice, combination with daunorubicin (Example 8); type: in vivo, BALB-cA nude mice; conditions: 2 mg/kg I.V., D0-10
Experimental: Mice body weights and tumor sizes were measured twice a week. The tumor volume, T/C and TGI (Tumor growth inhibition=(average tumor volume in vehicle group-average tumor volume in administration group)/average tumor volume in vehicle group ×100%) were calculated. Mice were sacrificed on Day 21. Female BALB-cA nude mice, 6-7 weeks old, purchased from Shanghai Ling-chang Biotech Co., Ltd, were subcutaneously inoculated with MV-4-11 cells (from ATCC). […] Mice body weights and tumor sizes were measured twice a week. The tumor volume, T/C and tumor volume based TGI were calculated as described above. Mice were sacrificed on Day 11.

H69 = assay: Tumor cell death by MTT, H69; type: cell-based, human; conditions: 10 μM
Experimental: (§1) The in vitro inhibitory effect of Compound A alone or in combination with a PARP inhibitor on tumor cell growth was tested using human small cell lung cancer (SCLC) cell lines, including H69 (ATCC® HTB-119™), H526 (ATCC® CRL-5811™) and H446 (TCHu196, National Collection of Authenticated Cell Cultures).
(§2) Briefly, the cells were seeded into a 96-well dish with RPMI-1640 (10-040-CV, Coming cellgro) containing 10% fetal bovine serum (10270-106, GIBCO), 1% penicillin and 1% streptomycin (BaSalMedia, S110JV), at an initial density of 3×10^3 cells per well ([…]), and cultured at a 37° C., 5% CO2 humidified incubator for 24 hours. Then, the culture media were added with Compound A (final concentration at 20 nM), olaparib (APEXBIO, A4154, a PARP inhibitor, final concentration at 10 μM), Compound A + olaparib (final concentrations at20 nM and 10 μM), or PBS (vehicle), respectively, and the cells were cultured for 48 hours. Then, cell viability was determined by MTT. The test was done in triplicate.
(§3) Cell death rate was calculated by the following formula.
(§4) Cell death rate=[1−(ODtest-ODvehicle)]×100%
(§5) Cell death rates were analyzed using student's t-test, and group differences were deemed statistically significant when the p-value was lower than 0.05. Zheng-Jun Jin's Q value was calculated using the formula Q=EA+B/(EA+EB-EA×EB) to assess the combined effect of Compound A and the PARP inhibitor, wherein EA+B, EA, and EB referred to the cell death rates caused by the combined treatment, Compound A treatment and PARP inhibitor treatment, respectively. A Q value higher than 1.15 meant a synergistic […] effect.
(§6) Another PARP inhibitor, rucaparib (APEXBIO, A4156), was tested alone or with Compound A for inhibitory effect on tumor cell growth, following the protocol of Example 9.

H526 = assay: Tumor cell death by MTT, H526; type: cell-based, human; conditions: 10 μM
Experimental: as §1, §2, §3, §4, §5, §6

H446 = assay: Tumor cell death by MTT, H446; type: cell-based, human; conditions: 10 μM
Experimental: as §1, §2, §3, §4, §5, §6

[7] = test system: Ls-174t human colon cancer cells; assay: Ls-174t colon cancer xenograft in mice; type: in vivo, BALB/cA-nude mice; conditions: 153 mg/kg I.P., D0-4, 7-11
Description: Mice were sacrificed on Day-14.

## CC[C@H](Nc1ncnc2[nH]cnc12)c1nc2cccc(F)c2c(=O)n1-c1ccccc1 [CAL 101, reference compound]
MV-4-11 cells [1]; 90 mg/kg P.O.
  T/C (%) D21: 50%
  TGI (%) D21: 50%
  Tumor volume D0: 79.6 ± 3.1 mm^3
  Tumor volume D21: 442.2 ± 93.8 mm^3
  Complete remission: 0
MV-4-11 cells [1]; 180 mg/kg P.O.
  T/C (%) D21: 39%
  TGI (%) D21: 61%
  Tumor volume D0: 78.9 ± 1.9 mm^3
  Tumor volume D21: 361.7 ± 93.8 mm^3
  Complete remission: 0

## O=P1(N(CCCl)CCCl)NCCCO1 (stereo not drawn) [CTX, cyclophosphamide, reference compound]
[2]; 30 mg/kg I.V., D1-7
  Body weight (without tumor) at D8: 21.22 g
  TGI: 79.00%
  Tumor weight: 0.43 g
[3]
  Body weight (without tumor) D1: 21.8 g
  Body weight (without tumor) D8: 26.8 g
  Tumor weight on Day 8: 0.60 ± 0.18 g
[3]; tumor weight, Day 8
  TGI: 68.8* %

## N.N.[Cl][Pt][Cl] [Cisplatin, cisplatin, reference compound]
[4]
  Body weight (with tumor) D0: 18.4 g
  Body weight (with tumor) D18: 16.0 g
  RTV at D18: 2.85 ± 1.52
  Tumor volume D0: 127 ± 24 mm^3
  Tumor volume D18: 366 ± 201 mm^3
[4]; D18
  T/C: 34.9* %
[5]
  Body weight (with tumor) D0: 16.7 g
  Body weight (with tumor) D18: 15.3 g
  RTV at D18: 8.89 ± 5.39
  Tumor volume D0: 110 ± 12 mm^3
  Tumor volume D18: 944 ± 536 mm^3
[5]; D18
  T/C: 33.7* %

## COc1cccc2c1C(=O)c1c(O)c3c(c(O)c1C2=O)C[C@@](O)(C(C)=O)C[C@@H]3O[C@H]1C[C@H](N)[C@H](O)[C@H](C)O1 [Daunorubicin, daunorubicin, reference compound]
MV-4-11 cells [6]; D11
  T/C: 38%
  TGI: 62%
MV-4-11 cells [6]; in mm³
  Tumor volume D0: 152.9
  Tumor volume D11: 1167.3

## Nc1ccn([C@@H]2O[C@H](CO)[C@@H](O)C2(F)F)c(=O)n1 [Gemcitabine, gemcitabine]
[2]; 10 mg/kg I.V., D1
  Body weight (without tumor) at D8: 22.31 g
  TGI: 57.51%
  Tumor weight: 0.86 g
[2]; 20 mg/kg IV, D1
  Body weight (without tumor) at D8: 22.35 g
  TGI: 81.53%
  Tumor weight: 0.38 g

## O=C(c1cc(Cc2n[nH]c(=O)c3ccccc23)ccc1F)N1CCN(C(=O)C2CC2)CC1 [Olaparib, olaparib, reference compound]
H69; 48 hours, Table 10
  Cell Death Rate/% 1: 6%
  Cell Death Rate/% 2: 6.25%
  Cell Death Rate/% 3: 6.54%
  Cell Death Rate/% mean: 6.26%
H526; 48 hours, Table 10
  Cell Death Rate/% 1: 5.25%
  Cell Death Rate/% 2: 4.92%
  Cell Death Rate/% 3: 5.13%
  Cell Death Rate/% mean: 5.10%
H446; 48 hours, Table 10
  Cell Death Rate/% 1: 12.01%
  Cell Death Rate/% 2: 12.55%
  Cell Death Rate/% 3: 12.24%
  Cell Death Rate/% mean: 12.27%

## Nc1nc2[nH]cc(CCc3ccc(C(=O)N[C@@H](CCC(=O)O)C(=O)O)cc3)c2c(=O)[nH]1 [Pemetrexed disodium, pemetrexed disodium, reference compound]
[7]
  Body weight (without tumor) D0: 24.0 g
  Body weight (without tumor) D14: 15.3 g
  RTV at D14: 9.14 ± 2.86
  Tumor volume D0: 138 ± 33 mm^3
  Tumor volume D14: 1209 ± 244 mm^3
[7]; D14
  T/C: 43.3* %

## CNCc1ccc(-c2[nH]c3cc(F)cc4c3c2CCNC4=O)cc1 [Rucaparib, rucaparib, reference compound]
H69; Example 10, Table 11
  Cell Death Rate/% 1: 7.51%
  Cell Death Rate/% 2: 7.3%
  Cell Death Rate/% 3: 8.11%
  Cell Death Rate/% mean: 7.64%
H526; Example 10, Table 11
  Cell Death Rate/% 1: 6.73%
  Cell Death Rate/% 2: 6.57%
  Cell Death Rate/% 3: 6.19%
  Cell Death Rate/% mean: 6.50%
H446; Example 10, Table 11
  Cell Death Rate/% 1: 14%
  Cell Death Rate/% 2: 13.79%
  Cell Death Rate/% 3: 14.48%
  Cell Death Rate/% mean: 14.09%
